Test results taken from PubChem BioAssay (NCI).
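Step 1: Grow cells in 96-well plates. Step 2: Expose to compound for 48 hours at 5 concentrations. Step 3: Interpolate endpoints linearly; if unreached, use highest concentration. The concentration for 50% growth inhibition is given as GI50. TGI: total growth inhibition.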

Assays:
Test in all cases: NCI anticancer screen, dose series, 48 h
[1] = test system: SF-268 CNS
[2] = test system: A498 renal
[3] = test system: EKVX NSCLC
[4] = test system: SK-MEL-28 melanoma
[5] = test system: MDA-MB-435
[6] = test system: SF-539 CNS
[7] = test system: SK-OV-3 ovarian
[8] = test system: OVCAR-4 ovarian
[9] = test system: NCI/ADR-RES ovarian
[10] = test system: OVCAR-8 ovarian
[11] = test system: HOP-62 NSCLC
[12] = test system: IGROV1 ovarian
[13] = test system: SNB-19 CNS
[14] = test system: SF-295 CNS
[15] = test system: K-562 leukemia
[16] = test system: NCI-H460 lung
[17] = test system: COLO 205 colon
[18] = test system: UACC-62 melanoma
[19] = test system: HS 578T breast
[20] = test system: OVCAR-5 ovarian
[21] = test system: OVCAR-3 ovarian
[22] = test system: HCT-116 colon
[23] = test system: PC-3 prostate
[24] = test system: HCT-15 colon
[25] = test system: DU-145 prostate
[26] = test system: HL-60(TB) leukemia
[27] = test system: RPMI-8226 leukemia
[28] = test system: SK-MEL-2 melanoma
[29] = test system: A549 NSCLC
[30] = test system: LOX IMVI melanoma
[31] = test system: UO-31 renal
[32] = test system: MCF7 breast
[33] = test system: NCI-H226 lung
[34] = test system: HT29 colon
[35] = test system: TK-10 renal
[36] = test system: MOLT-4 leukemia
[37] = test system: SK-MEL-5 melanoma
[38] = test system: SN12C renal
[39] = test system: SNB-75 CNS
[40] = test system: RXF 393 renal
[41] = test system: M14 melanoma
[42] = test system: HOP-92 NSCLC
[43] = test system: CCRF-CEM leukemia
[44] = test system: U251 CNS
[45] = test system: ACHN renal
[46] = test system: T-47D breast
[47] = test system: CAKI-1 renal
[48] = test system: NCI-H522 lung
[49] = test system: UACC-257 melanoma
[50] = test system: HCC-2998 colon
[51] = test system: KM12 colon
[52] = test system: 786-0 renal
[53] = test system: BT-549 breast
[54] = test system: SW-620 colon
[55] = test system: MDA-MB-231 breast

Cc1nc2ccccn2c1NC(=O)NN1C(=O)CSC1c1ccc(Cl)cc1 (centres undefined)
GI50 [1]: > 100 µM
TGI [1]: > 100 µM
GI50 [2]: > 100 µM
TGI [2]: > 100 µM
GI50 [3]: > 100 µM
TGI [3]: > 100 µM
GI50 [4]: > 100 µM
TGI [4]: > 100 µM
GI50 [5]: > 100 µM
TGI [5]: > 100 µM
GI50 [6]: > 100 µM
TGI [6]: > 100 µM
GI50 [7]: > 100 µM
TGI [7]: > 100 µM
GI50 [8]: > 100 µM
TGI [8]: > 100 µM
GI50 [9]: > 100 µM
TGI [9]: > 100 µM
GI50 [10]: > 100 µM
TGI [10]: > 100 µM
GI50 [11]: > 100 µM
TGI [11]: > 100 µM
GI50 [12]: > 100 µM
TGI [12]: > 100 µM
GI50 [13]: > 100 µM
TGI [13]: > 100 µM
GI50 [14]: > 100 µM
TGI [14]: > 100 µM
GI50 [15]: > 100 µM
TGI [15]: > 100 µM
GI50 [16]: > 100 µM
TGI [16]: > 100 µM
GI50 [17]: > 100 µM
TGI [17]: > 100 µM
GI50 [18]: > 100 µM
TGI [18]: > 100 µM
GI50 [19]: > 100 µM
TGI [19]: > 100 µM
GI50 [20]: > 100 µM
TGI [20]: > 100 µM
GI50 [21]: > 100 µM
TGI [21]: > 100 µM
GI50 [22]: > 100 µM
TGI [22]: > 100 µM
GI50 [23]: > 100 µM
TGI [23]: > 100 µM
GI50 [24]: > 100 µM
TGI [24]: > 100 µM
GI50 [25]: > 100 µM
TGI [25]: > 100 µM
GI50 [26]: > 100 µM
TGI [26]: > 100 µM
GI50 [27]: > 100 µM
TGI [27]: > 100 µM
GI50 [28]: > 100 µM
TGI [28]: > 100 µM
GI50 [29]: > 100 µM
TGI [29]: > 100 µM
GI50 [30]: > 100 µM
TGI [30]: > 100 µM
GI50 [31]: > 100 µM
TGI [31]: > 100 µM
GI50 [32]: > 100 µM
TGI [32]: > 100 µM
GI50 [33]: > 100 µM
TGI [33]: > 100 µM
GI50 [34]: > 100 µM
TGI [34]: > 100 µM
GI50 [35]: > 100 µM
TGI [35]: > 100 µM
GI50 [36]: > 100 µM
TGI [36]: > 100 µM
GI50 [37]: > 100 µM
TGI [37]: > 100 µM
GI50 [38]: > 100 µM
TGI [38]: > 100 µM
GI50 [39]: > 100 µM
TGI [39]: > 100 µM
GI50 [40]: > 100 µM
TGI [40]: > 100 µM
GI50 [41]: > 100 µM
TGI [41]: > 100 µM
GI50 [42]: > 100 µM
TGI [42]: > 100 µM
TGI [43]: 0.012 µM
GI50 [44]: > 100 µM
TGI [44]: > 100 µM
GI50 [45]: > 100 µM
TGI [45]: > 100 µM
GI50 [46]: > 100 µM
TGI [46]: > 100 µM
GI50 [47]: > 100 µM
TGI [47]: > 100 µM
GI50 [48]: > 100 µM
TGI [48]: > 100 µM
GI50 [49]: > 100 µM
TGI [49]: > 100 µM
GI50 [50]: > 100 µM
TGI [50]: > 100 µM
GI50 [51]: > 100 µM
TGI [51]: > 100 µM
GI50 [52]: > 100 µM
TGI [52]: > 100 µM
GI50 [53]: > 100 µM
TGI [53]: > 100 µM
GI50 [54]: > 100 µM
TGI [54]: > 100 µM
GI50 [55]: > 100 µM
TGI [55]: > 100 µM
